Experimental data as given in US9487510B2, “Substituted heterocyclic acetamides as kappa opioid receptor (KOR) agonists” (Dr. Reddy's Laboratories Ltd., priority 2012, dated 2016).
pEC50: −log10 of the molar value.

What was measured:
human KOR receptor = human KOR receptor (Homo sapiens, UniProt P41145); experiment: IP-One HTRF assay, potency of KOR agonists, dose-response in transiently transfected COS-7 cells; format: cell-based
Chain of human KOR receptor (P41145 whole entry): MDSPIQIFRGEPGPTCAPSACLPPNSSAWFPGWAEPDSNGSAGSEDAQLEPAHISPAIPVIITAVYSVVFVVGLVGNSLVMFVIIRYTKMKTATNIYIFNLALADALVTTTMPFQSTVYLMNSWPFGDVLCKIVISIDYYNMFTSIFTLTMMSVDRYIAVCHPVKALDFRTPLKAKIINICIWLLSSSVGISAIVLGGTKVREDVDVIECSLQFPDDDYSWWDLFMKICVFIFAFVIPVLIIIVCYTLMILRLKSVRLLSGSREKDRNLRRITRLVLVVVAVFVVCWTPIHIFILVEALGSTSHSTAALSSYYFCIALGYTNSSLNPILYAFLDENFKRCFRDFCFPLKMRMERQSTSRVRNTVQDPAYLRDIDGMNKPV

| SMILES | melting point | pEC50 (human KOR receptor) |
| --- | --- | --- |
| O=C(Cc1ccc2ccc(=O)[nH]c2c1)N[C@H](CN1CC[C@H](O)C1)c1ccccc1 | 174 to 176 °C | – |
| O=C1Cc2ccc(CC(=O)N[C@H](CN3CC[C@H](O)C3)c3ccccc3)cc2N1 | 207 to 209 °C | – |
| Cn1c(=O)oc2ccc(CC(=O)N[C@H](CN3CCC(O)C3)c3ccccc3)cc21 (stereo in doubt) [Example 45, N-((S)-2-((S)-3-hydroxypyrrolidin-1-yl)-1-phenylethyl)-2-(3-methyl-2-oxo-2,3-dihydrobenzo[d]oxazol-5-yl)acetamide] | 105 to 106 °C | ≥ 7.30 |
| O=C(Cc1ccc2[nH]c(=O)ccc2c1)N[C@H](CN1CCC(O)C1)c1ccccc1 (stereo in doubt) [Example 51, N-((S)-2-((R)-3-hydroxypyrrolidin-1-yl)-1-phenylethyl)-2-(2-oxo-1,2-dihydroquinolin-6-yl)acetamide] | 196 to 198 °C | 6.00 to 7.00 |
| CN(C(=O)Cc1ccc2oc(=O)[nH]c2c1)[C@H](CN1CCC(O)C1)c1cccc(OCC(=O)OC(C)(C)C)c1 (stereo in doubt) [Example 77, Tert-butyl 2-(3-((S)-2-((R)-3-hydroxypyrrolidin-1-yl)-1-(N-methyl-2-(2-oxo-2,3-dihydrobenzo[d]oxazol-5-yl)acetamido)ethyl)phenoxy)acetate] | 124 to 125 °C | ≥ 7.30 |
| CN(C(=O)Cc1ccc2oc(=O)[nH]c2c1)C(CN1CCCC1)c1cccc(OCC(=O)O)c1 (stereo in doubt) [Example 90, (R)-2-(3-(1-(N-methyl-2-(2-oxo-2,3-dihydrobenzo[d]oxazol-5-yl)acetamido)-2-(pyrrolidin-1-yl)ethyl)phenoxy)acetic acid] | 227 to 229 °C | 7.00 to 7.29 |
| CN(C(=O)Cc1ccc2oc(=O)[nH]c2c1)[C@H](CN1CCC(O)C1)c1cccc(OCC(=O)O)c1.Cl (stereo in doubt) [Example 96, 2-(3-((S)-2-((R)-3-hydroxypyrrolidin-1-yl)-1-(N-methyl-2-(2-oxo-2,3-dihydrobenzo[d]oxazol-5-yl)acetamido)ethyl)phenoxy)acetic acid] | 95 to 96 °C | ≥ 7.30 |
| CN(C(=O)Cc1ccc2oc(=O)[nH]c2c1)[C@H](CN1CCC(O)C1)c1cccc(-c2nn[nH]n2)c1 (stereo in doubt) [Example 99, N-((S)-1-(3-(2H-tetrazol-5-yl)phenyl)-2-((S)-3-hydroxypyrrolidin-1-yl)ethyl)-N-methyl-2-(2-oxo-2,3-dihydrobenzo[d]oxazol-5-yl)acetamide] | 228 to 230 °C | ≥ 7.30 |
| O=C(Cc1ccc2oc(=O)n(Cc3cccc(-c4nn[nH]n4)c3)c2c1)N[C@H](CN1CCC(O)C1)c1ccccc1 (stereo in doubt) [Example 102, 2-(3-(3-(2H-tetrazol-5-yl)benzyl)-2-oxo-2,3-dihydrobenzo[d]oxazol-5-yl)-N-((S)-2-((S)-3-hydroxypyrrolidin-1-yl)-1-phenylethyl)acetamide] | 235 to 237 °C | ≥ 7.30 |
| CN(C(=O)Cc1ccc2oc(=O)n(Cc3cccc(-c4nn[nH]n4)c3)c2c1)[C@H](CN1CCC(O)C1)c1ccccc1 (stereo in doubt) [Example 103, 2-(3-(3-(2H-tetrazol-5-yl)benzyl)-2-oxo-2,3-dihydrobenzo[d]oxazol-5-yl)-N-((S)-2-((S)-3-hydroxypyrrolidin-1-yl)-1-phenylethyl)-N-methylacetamide] | 123 to 125 °C | ≥ 7.30 |
| CN(C(=O)Cc1ccc2oc(=O)n(Cc3ccc(-c4nnn[nH]4)cc3)c2c1)[C@H](CN1CCC(O)C1)c1ccccc1 (stereo in doubt) [Example 104, 2-(3-(4-(1H-tetrazol-5-yl)benzyl)-2-oxo-2,3-dihydrobenzo[d]oxazol-5-yl)-N-((S)-2-((S)-3-hydroxypyrrolidin-1-yl)-1-phenylethyl)-N-methylacetamide] | 218 to 220 °C | ≥ 7.30 |
| CN(C(=O)Cc1ccc2c(c1)NC(=O)CS2(=O)=O)[C@H](CN1CC[C@H](O)C1)c1cccc(-c2ncon2)c1 [Example 212, N-((S)-1-(3-(1,2,4-oxadiazol-3-yl)phenyl)-2-((S)-3-hydroxypyrrolidin-1-yl)ethyl)-2-(1,1-dioxido-3-oxo-3,4-dihydro-2H-benzo[b][1,4]thiazin-6-yl)-N-methylacetamide2,2,2-trifluoroacetate] | – | ≥ 7.30 |
| CN(C(=O)Cc1ccc2c(c1)NC(=O)C2)[C@H](CN1CC[C@H](O)C1)c1cccc(-c2nccn2C)c1 [Example 213, N-((S)-2-((S)-3-hydroxypyrrolidin-1-yl)-1-(3-(1-methyl-1H-imidazol-2-yl)phenyl)ethyl)-N-methyl-2-(2-oxoindolin-6-yl)acetamide] | – | ≥ 7.30 |
| CCc1nc(-c2cccc([C@@H](CN3CC[C@H](O)C3)N(C)C(=O)Cc3ccc4c(c3)NC(=O)C4)c2)no1 [Example 214, N-((S)-1-(3-(5-ethyl-1,2,4-oxadiazol-3-yl)phenyl)-2-((S)-3-hydroxypyrrolidin-1-yl)ethyl)-N-methyl-2-(2-oxoindolin-6-yl)acetamide] | – | ≥ 7.30 |
| Cc1cnc(-c2cccc([C@@H](CN3CC[C@H](O)C3)N(C)C(=O)Cc3ccc4c(c3)NC(=O)C4)c2)s1 [Example 215, N-((S)-2-((S)-3-hydroxypyrrolidin-1-yl)-1-(3-(5-methylthiazol-2-yl)phenyl)ethyl)-N-methyl-2-(2-oxoindolin-6-yl)acetamide] | – | ≥ 7.30 |
| CN(C(=O)Cc1ccc2c(c1)NC(=O)C2)[C@H](CN1CC[C@H](O)C1)c1cccc(-c2cncs2)c1 [Example 216, N-((S)-2-((S)-3-hydroxypyrrolidin-1-yl)-1-(3-(thiazol-5-yl)phenyl)ethyl)-N-methyl-2-(2-oxoindolin-6-yl)acetamide] | – | ≥ 7.30 |
| CN(C(=O)Cc1ccc2c(c1)NC(=O)C2)[C@H](CN1CC[C@H](O)C1)c1cccc(-c2cscn2)c1 [Example 217, N-((S)-2-((S)-3-hydroxypyrrolidin-1-yl)-1-(3-(thiazol-4-yl)phenyl)ethyl)-N-methyl-2-(2-oxoindolin-6-yl)acetamide] | – | ≥ 7.30 |
| Cc1csc(-c2cccc([C@@H](CN3CC[C@H](O)C3)N(C)C(=O)Cc3ccc4c(c3)NC(=O)C4)c2)n1 [Example 218, N-((S)-2-((S)-3-hydroxypyrrolidin-1-yl)-1-(3-(4-methylthiazol-2-yl)phenyl)ethyl)-N-methyl-2-(2-oxoindolin-6-yl)acetamide] | – | ≥ 7.30 |
| Cc1ncc(-c2cccc([C@@H](CN3CC[C@H](O)C3)N(C)C(=O)Cc3ccc4c(c3)NC(=O)C4)c2)s1 [Example 219, N-((S)-2-((S)-3-hydroxypyrrolidin-1-yl)-1-(3-(2-methylthiazol-5-yl)phenyl)ethyl)-N-methyl-2-(2-oxoindolin-6-yl)acetamide] | – | ≥ 7.30 |
| Cc1nc(-c2cccc([C@@H](CN3CC[C@H](O)C3)N(C)C(=O)Cc3ccc4c(c3)NC(=O)C4)c2)cs1 [Example 220, N-((S)-2-((S)-3-hydroxypyrrolidin-1-yl)-1-(3-(2-methylthiazol-4-yl)phenyl)ethyl)-N-methyl-2-(2-oxoindolin-6-yl)acetamide] | – | ≥ 7.30 |
| Cc1nnc(-c2cccc([C@@H](CN3CC[C@H](O)C3)N(C)C(=O)Cc3ccc4c(c3)NC(=O)C4)c2)s1 [Example 221, N-((S)-2-((S)-3-hydroxypyrrolidin-1-yl)-1-(3-(5-methyl-1,3,4-thiadiazol-2-yl)phenyl)ethyl)-N-methyl-2-(2-oxoindolin-6-yl)acetamide] | – | ≥ 7.30 |
| CN(C(=O)Cc1ccc2c(c1)NC(=O)C2)[C@H](CN1CC[C@H](O)C1)c1cccc(-c2cncn2C)c1 [Example 222, N-((S)-2-((S)-3-hydroxypyrrolidin-1-yl)-1-(3-(1-methyl-1H-imidazol-5-yl)phenyl)ethyl)-N-methyl-2-(2-oxoindolin-6-yl)acetamide] | – | ≥ 7.30 |
| CN(C(=O)Cc1ccc2c(c1)NC(=O)C2)[C@H](CN1CC[C@H](O)C1)c1cccc(-c2nnco2)c1 [Example 223, N-((S)-1-(3-(1,3,4-oxadiazol-2-yl)phenyl)-2-((S)-3-hydroxypyrrolidin-1-yl)ethyl)-N-methyl-2-(2-oxoindolin-6-yl)acetamide] | – | ≥ 7.30 |
| Cc1nnc(-c2cccc([C@@H](CN3CC[C@H](O)C3)N(C)C(=O)Cc3ccc4c(c3)NC(=O)C4)c2)o1 [Example 224, N-((S)-2-((S)-3-hydroxypyrrolidin-1-yl)-1-(3-(5-methyl-1,3,4-oxadiazol-2-yl)phenyl)ethyl)-N-methyl-2-(2-oxoindolin-6-yl)acetamide] | – | ≥ 7.30 |
| CN(C(=O)Cc1ccc2c(c1)NC(=O)C2)[C@H](CN1CC[C@H](O)C1)c1cccc(-c2cn(C)cn2)c1 [Example 225, N-((S)-2-((S)-3-hydroxypyrrolidin-1-yl)-1-(3-(1-methyl-1H-imidazol-4-yl)phenyl)ethyl)-N-methyl-2-(2-oxoindolin-6-yl)acetamide] | – | ≥ 7.30 |
| CN(C(=O)Cc1ccc2c(c1)NC(=O)C2)[C@H](CN1CC[C@H](O)C1)c1cccc(-c2nccn2CC2CC2)c1 [Example 226, N-((S)-1-(3-(1-(cyclopropylmethyl)-1H-imidazol-2-yl)phenyl)-2-((S)-3-hydroxypyrrolidin-1-yl)ethyl)-N-methyl-2-(2-oxoindolin-6-yl)acetamide] | – | ≥ 7.30 |
| Cc1noc(-c2cccc([C@@H](CN3CC[C@H](O)C3)N(C)C(=O)Cc3ccc4c(c3)NC(=O)C4)c2)n1 [Example 227, N-((S)-2-((S)-3-hydroxypyrrolidin-1-yl)-1-(3-(3-methyl-1,2,4-oxadiazol-5-yl)phenyl)ethyl)-N-methyl-2-(2-oxoindolin-6-yl)acetamide] | – | ≥ 7.30 |
| CN(C(=O)Cc1ccc2sc(=O)[nH]c2c1)[C@H](CN1CC[C@H](O)C1)c1cccc(C(=O)NCC(F)(F)F)c1 [Example 228, 3-((S)-2-((S)-3-hydroxypyrrolidin-1-yl)-1-(N-methyl-2-(2-oxo-2,3-dihydrobenzo[d]thiazol-5-yl)acetamido)ethyl)-N-(2,2,2-trifluoroethyl)benzamide] | – | ≥ 7.30 |
